According to ChEMBL document CHEMBL1201862, “PubChem BioAssay data set” (2004):
Activity calls are given as the source filed them.

Columns and labels:
[1] = target: T1, Streptokinase A (Streptococcus pyogenes serotype M1, UniProt P10520); assay: S. pyogenes streptokinase expression inhibitors, potency, dose response, plasminogen activation absorbance, OD405 (AID 1914); assay type: functional, Streptococcus pyogenes M1 GAS;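 further: secreted streptokinase activity via plasminogen activation per viability signal from cell pellet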
T1 sequence (P10520 whole entry): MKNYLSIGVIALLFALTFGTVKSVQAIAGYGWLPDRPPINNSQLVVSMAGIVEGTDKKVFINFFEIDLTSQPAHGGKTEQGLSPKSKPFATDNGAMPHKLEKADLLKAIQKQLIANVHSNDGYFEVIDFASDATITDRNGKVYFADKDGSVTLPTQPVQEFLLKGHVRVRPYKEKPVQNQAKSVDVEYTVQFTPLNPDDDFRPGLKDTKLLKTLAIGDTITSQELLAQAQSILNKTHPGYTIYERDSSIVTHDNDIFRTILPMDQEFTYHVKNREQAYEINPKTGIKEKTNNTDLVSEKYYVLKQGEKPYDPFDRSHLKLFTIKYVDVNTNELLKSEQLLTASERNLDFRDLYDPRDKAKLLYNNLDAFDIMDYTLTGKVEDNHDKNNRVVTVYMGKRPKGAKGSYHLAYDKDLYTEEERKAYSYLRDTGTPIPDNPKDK

[2] = system: Streptococcus sp. 'group A'; assay: growth inhibition of control SK(-) GAS strain, dose response, counter-screen for streptokinase expression inhibitor project, luminescence, kanamycin, BacTiterGlo, confirmation (AID 1900); assay type: functional, organism-based
[3] = target: DNA dC->dU-editing enzyme APOBEC-3G (Homo sapiens, UniProt Q9HC16); assay: Dose Response confirmation of small molecule APOBEC3G DNA Deaminase Inhibitors via a fluorescence-based single-stranded DNA deaminase assay. [Related pubchem assays (depositor defined):AID493012, AID493028]; assay type: functional
DNA dC->dU-editing enzyme APOBEC-3G, sequence (Q9HC16 whole entry): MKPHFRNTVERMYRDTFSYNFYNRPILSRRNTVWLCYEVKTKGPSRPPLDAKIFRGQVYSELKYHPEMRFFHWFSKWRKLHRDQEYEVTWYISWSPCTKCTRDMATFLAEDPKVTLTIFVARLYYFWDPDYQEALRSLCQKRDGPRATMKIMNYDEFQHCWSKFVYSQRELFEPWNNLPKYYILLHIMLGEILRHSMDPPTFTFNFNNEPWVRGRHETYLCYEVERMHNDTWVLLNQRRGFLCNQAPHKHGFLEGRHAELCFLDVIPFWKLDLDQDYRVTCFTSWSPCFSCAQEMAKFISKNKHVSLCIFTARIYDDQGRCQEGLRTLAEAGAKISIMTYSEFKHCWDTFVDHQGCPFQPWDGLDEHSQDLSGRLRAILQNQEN

[4] = system: Streptococcus; assay: Group A Streptococcus viability loss, dose response, counter-screen for streptokinase expression inhibitor project, luminescence, BacTiterGlo (AID 1915); assay type: functional, organism-based;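 further: potency for reduction of bacterial viability or growth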
[5] = target: DNA dC->dU-editing enzyme APOBEC-3A (Homo sapiens, UniProt P31941); assay: APOBEC3A DNA deaminase inhibitors, dose response, biochemical (AID 504722); assay type: functional
DNA dC->dU-editing enzyme APOBEC-3A, sequence (P31941 whole entry): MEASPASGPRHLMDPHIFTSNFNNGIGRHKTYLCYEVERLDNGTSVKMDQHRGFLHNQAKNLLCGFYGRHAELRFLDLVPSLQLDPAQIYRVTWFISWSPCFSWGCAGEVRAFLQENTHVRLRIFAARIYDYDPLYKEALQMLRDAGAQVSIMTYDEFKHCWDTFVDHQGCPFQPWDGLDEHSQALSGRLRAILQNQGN

[6] = target: Caspase-7 (Homo sapiens, UniProt P55210); assay: procaspase-7 activators, dose response, counter-screen for procaspase-3 activator project, biochemical, absorbance (AID 489013)
Caspase-7, sequence (P55210 24-198 limits assumed): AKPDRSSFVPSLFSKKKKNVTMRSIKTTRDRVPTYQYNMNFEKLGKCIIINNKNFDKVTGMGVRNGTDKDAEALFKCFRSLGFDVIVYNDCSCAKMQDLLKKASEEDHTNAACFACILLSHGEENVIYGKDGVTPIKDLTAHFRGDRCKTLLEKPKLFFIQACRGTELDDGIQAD
Caspase-7, sequence (P55210 207-303 limits assumed): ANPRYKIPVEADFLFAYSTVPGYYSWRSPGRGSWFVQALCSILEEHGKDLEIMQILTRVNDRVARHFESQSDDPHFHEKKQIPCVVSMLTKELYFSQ

[7] = target: T2, Caspase-3 (Homo sapiens, UniProt P42574); assay: procaspase-3 activators, dose response, biochemical, absorbance (AID 489014)
T2 sequence (P42574 whole entry): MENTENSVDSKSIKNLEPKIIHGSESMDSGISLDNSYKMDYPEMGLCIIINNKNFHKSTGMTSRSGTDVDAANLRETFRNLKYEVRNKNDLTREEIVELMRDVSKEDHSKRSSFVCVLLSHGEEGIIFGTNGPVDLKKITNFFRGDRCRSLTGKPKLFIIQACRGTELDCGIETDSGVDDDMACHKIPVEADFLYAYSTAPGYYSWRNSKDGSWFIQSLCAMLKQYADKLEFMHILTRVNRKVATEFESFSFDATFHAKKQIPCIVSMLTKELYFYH

[8] = target: Mu-type opioid receptor (Homo sapiens, UniProt P35372); assay: SAR Analysis of Antagonists of the MOR Receptor using an Image-Based Assay - Set 3. [Related pubchem assays (depositor defined):AID1777, AID1785, AID1786, AID1966, AID2133, AID2136, AID2284, AID2285, AID2420]; assay type: functional
Mu-type opioid receptor, sequence (P35372 whole entry): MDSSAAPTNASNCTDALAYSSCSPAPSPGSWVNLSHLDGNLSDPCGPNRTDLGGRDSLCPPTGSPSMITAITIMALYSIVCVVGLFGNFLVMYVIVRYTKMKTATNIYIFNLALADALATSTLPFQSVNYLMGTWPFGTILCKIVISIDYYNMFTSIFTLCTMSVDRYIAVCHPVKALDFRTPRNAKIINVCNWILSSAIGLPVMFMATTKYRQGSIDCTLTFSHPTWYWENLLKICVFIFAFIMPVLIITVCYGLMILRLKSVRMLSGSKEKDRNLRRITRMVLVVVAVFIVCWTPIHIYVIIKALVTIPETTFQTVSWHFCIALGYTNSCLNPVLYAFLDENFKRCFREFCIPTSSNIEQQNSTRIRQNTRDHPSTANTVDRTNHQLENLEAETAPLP

[9] = target: T3, Kappa-type opioid receptor (Homo sapiens, UniProt P41145); assay: SAR analysis of Antagonists of the Kappa Opioid Receptor (KOR) using an Image-Based Assay - Set 4. [Related pubchem assays (depositor defined):AID1777, AID1785]; assay type: functional
T3 sequence (P41145 whole entry): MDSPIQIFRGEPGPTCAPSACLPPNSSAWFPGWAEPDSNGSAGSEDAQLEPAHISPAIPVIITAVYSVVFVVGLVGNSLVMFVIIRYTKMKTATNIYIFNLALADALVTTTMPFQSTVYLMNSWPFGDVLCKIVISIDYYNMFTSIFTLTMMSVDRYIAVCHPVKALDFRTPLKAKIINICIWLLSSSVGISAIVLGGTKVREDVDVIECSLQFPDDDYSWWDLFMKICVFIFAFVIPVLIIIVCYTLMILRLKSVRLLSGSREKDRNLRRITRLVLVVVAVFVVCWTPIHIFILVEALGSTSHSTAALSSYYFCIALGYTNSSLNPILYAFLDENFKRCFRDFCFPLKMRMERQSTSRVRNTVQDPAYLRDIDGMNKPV

[10] = target: T3, Kappa-type opioid receptor; assay: SAR analysis of small molecule antagonists of the kappa opioid receptor via a luminescent beta-arrestin assay - Set 4. [Related pubchem assays (depositor defined):AID1777, AID1778, AID1785, AID1786, AID1966, AID2133, AID2136, AID2285]; assay type: functional
[11] = target: T3, Kappa-type opioid receptor; assay: SAR analysis of small molecule antagonists of the kappa opioid receptor via a luminescent beta-arrestin assay - Set 6. [Related pubchem assays (depositor defined):AID1777, AID1778, AID1785, AID1786, AID1966, AID2133, AID2136, AID2285]; assay type: functional
[12] = target: Delta-type opioid receptor (Homo sapiens, UniProt P41143); assay: SAR Analysis of Antagonists of the DOR Receptor using an Image-Based Assay - Set 3. [Related pubchem assays (depositor defined):AID1777, AID1785]; assay type: functional;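 further: U2OS cells expressing DOR1 and beta-arrestin GFP stimulated with 100 nM SNC80; imaging of GFP-tagged beta-arrestin moving into spots after receptor activation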
Delta-type opioid receptor, sequence (P41143 whole entry): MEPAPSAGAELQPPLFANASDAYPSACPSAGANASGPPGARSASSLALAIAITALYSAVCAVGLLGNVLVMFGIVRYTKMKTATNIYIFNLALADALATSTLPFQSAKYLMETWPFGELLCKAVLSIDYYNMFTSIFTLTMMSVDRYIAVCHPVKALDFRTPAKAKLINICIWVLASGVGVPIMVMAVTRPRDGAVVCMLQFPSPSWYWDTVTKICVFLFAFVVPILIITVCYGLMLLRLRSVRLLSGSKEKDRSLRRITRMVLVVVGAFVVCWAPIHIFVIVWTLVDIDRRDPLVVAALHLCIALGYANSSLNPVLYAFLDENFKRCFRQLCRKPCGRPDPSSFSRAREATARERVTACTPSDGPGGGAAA

[13] = target: Troponin, cardiac muscle (Homo sapiens, UniProt P19429+P45379+P63316); assay: inhibitors of cardiac thin filament calcium sensitivity, dose response, biochemical, fluorescence, cardiac regulated thin filaments, triplicate IC50 (AID 504742); assay type: protein-complex assay
[14] = target: T4, Histone-lysine N-methyltransferase NSD2 (Homo sapiens, UniProt O96028); assay type: biochemical
T4 sequence (O96028 whole entry): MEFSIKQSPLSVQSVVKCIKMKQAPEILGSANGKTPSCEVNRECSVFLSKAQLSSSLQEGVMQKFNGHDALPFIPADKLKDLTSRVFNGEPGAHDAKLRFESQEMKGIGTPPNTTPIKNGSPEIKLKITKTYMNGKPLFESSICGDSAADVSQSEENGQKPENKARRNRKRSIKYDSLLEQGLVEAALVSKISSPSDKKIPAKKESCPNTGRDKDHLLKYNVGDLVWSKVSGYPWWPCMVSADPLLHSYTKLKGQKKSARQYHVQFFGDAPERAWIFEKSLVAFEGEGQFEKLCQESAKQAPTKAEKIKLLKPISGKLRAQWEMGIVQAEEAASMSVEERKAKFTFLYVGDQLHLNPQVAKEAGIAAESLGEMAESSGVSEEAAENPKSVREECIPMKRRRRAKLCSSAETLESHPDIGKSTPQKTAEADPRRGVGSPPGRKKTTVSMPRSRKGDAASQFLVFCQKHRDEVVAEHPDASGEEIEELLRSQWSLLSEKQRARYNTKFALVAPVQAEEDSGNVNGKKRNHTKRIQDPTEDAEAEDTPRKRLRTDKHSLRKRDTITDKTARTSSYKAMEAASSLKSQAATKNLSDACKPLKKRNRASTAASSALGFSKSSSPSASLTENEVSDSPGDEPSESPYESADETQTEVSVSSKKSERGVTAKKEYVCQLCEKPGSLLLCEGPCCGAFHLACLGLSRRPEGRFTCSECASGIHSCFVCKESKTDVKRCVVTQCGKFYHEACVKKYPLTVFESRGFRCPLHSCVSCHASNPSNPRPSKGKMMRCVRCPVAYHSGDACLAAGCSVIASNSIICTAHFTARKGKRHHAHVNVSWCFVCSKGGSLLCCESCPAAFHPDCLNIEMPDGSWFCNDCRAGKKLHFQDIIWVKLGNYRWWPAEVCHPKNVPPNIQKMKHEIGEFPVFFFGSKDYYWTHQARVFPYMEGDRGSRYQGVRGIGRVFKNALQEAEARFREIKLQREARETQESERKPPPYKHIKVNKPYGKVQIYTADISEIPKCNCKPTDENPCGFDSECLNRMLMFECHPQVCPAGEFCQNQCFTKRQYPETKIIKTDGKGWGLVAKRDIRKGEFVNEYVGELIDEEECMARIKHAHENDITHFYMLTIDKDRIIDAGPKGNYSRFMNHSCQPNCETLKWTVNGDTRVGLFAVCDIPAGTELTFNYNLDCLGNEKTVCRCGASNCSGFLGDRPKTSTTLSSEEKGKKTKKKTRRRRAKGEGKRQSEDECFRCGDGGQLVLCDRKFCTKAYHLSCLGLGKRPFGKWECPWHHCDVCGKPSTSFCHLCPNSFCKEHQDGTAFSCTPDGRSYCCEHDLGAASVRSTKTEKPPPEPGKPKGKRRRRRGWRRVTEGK

[15] = target: T5, Apoptotic protease-activating factor 1 (Homo sapiens, UniProt O14727); assay type: functional
T5 sequence (O14727 whole entry): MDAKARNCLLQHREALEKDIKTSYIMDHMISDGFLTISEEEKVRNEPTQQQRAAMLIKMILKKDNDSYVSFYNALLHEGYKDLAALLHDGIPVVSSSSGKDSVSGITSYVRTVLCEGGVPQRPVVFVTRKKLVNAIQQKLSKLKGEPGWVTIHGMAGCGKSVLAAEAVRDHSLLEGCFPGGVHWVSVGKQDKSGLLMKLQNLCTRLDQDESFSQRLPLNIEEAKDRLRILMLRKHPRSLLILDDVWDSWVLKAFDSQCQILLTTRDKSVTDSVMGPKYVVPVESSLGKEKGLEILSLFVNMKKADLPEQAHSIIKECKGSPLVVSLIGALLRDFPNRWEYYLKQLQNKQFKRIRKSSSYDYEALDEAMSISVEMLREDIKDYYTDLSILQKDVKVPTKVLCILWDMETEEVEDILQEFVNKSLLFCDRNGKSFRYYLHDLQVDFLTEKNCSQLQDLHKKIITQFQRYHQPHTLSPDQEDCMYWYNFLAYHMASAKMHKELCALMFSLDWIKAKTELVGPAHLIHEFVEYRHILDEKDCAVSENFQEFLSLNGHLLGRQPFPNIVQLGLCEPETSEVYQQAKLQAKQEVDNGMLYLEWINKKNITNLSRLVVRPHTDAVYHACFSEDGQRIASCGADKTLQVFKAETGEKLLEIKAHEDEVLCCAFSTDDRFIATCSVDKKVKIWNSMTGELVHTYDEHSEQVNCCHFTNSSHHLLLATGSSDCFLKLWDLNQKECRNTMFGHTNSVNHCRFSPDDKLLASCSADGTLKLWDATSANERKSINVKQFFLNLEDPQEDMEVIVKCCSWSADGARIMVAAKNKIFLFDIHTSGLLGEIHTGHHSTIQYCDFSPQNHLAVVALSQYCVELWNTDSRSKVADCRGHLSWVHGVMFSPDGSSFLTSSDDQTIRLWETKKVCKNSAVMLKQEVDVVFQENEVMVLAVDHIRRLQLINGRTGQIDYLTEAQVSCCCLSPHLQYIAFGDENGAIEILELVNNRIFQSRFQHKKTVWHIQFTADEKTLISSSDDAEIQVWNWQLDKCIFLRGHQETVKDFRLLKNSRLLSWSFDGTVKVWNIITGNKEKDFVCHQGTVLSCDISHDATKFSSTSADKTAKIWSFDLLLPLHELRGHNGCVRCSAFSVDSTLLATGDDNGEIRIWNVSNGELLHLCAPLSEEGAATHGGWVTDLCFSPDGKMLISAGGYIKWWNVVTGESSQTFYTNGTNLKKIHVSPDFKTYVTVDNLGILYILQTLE

[16] = THP-1 cell cytotoxicity, dose response, cytotoxicity control for Vif-APOBEC3G degradation inhibitor project, THP-1 cells (AID 1117359); assay type: functional; conditions: Human immunodeficiency virus 1, THP-1
[17] = target: 1-phosphatidylinositol 4,5-bisphosphate phosphodiesterase beta-3 (Homo sapiens, UniProt Q01970); assay: Fluorescence-based biochemical high throughput dose response assay to identify inhibitors of phospholipase C isozymes (PLC-B3).
[18] = target: Beta-galactosidase (Escherichia coli, UniProt Q8VNN2); assay: beta-galactosidase enzyme inhibitors and activators, dose response, artefact control for CCR6 antagonist project, biochemical, E. coli enzyme, set 3 (AID 504712); assay type: functional
Beta-galactosidase, sequence (Q8VNN2 whole entry): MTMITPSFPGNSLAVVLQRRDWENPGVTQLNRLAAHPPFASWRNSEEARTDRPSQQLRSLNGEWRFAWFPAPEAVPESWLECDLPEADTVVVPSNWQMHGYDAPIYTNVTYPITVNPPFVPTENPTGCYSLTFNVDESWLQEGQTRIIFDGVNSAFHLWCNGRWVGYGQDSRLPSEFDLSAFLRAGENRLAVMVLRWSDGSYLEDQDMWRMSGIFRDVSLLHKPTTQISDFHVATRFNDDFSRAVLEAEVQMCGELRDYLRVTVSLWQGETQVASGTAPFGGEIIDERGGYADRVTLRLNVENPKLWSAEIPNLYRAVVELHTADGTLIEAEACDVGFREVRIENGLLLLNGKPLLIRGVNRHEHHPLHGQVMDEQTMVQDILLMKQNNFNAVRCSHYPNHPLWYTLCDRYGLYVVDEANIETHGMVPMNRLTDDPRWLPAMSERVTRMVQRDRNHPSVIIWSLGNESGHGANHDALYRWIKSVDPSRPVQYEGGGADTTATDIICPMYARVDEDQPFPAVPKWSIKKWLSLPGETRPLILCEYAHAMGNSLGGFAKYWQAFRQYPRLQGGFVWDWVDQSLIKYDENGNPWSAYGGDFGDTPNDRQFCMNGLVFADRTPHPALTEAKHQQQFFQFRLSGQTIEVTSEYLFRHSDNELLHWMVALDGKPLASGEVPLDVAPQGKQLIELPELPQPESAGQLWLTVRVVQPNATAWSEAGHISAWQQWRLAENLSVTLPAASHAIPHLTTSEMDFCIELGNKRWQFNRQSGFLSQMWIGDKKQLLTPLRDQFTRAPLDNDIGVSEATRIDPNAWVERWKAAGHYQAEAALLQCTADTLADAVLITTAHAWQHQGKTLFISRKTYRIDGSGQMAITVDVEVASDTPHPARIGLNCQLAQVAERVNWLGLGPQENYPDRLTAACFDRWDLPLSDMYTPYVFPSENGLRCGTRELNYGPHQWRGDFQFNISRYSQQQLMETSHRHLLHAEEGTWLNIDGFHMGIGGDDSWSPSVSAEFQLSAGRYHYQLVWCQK

[19] = target: 1-phosphatidylinositol 4,5-bisphosphate phosphodiesterase gamma-1 (Homo sapiens, UniProt P19174); assay: Counterscreen for inhibitors of phospholipase C isozymes (PLC-B3): Fluorescence-based biochemical high throughput dose response assay to identify inhibitors of phospholipase C isozymes (PLC-gamma1).
1-phosphatidylinositol 4,5-bisphosphate phosphodiesterase gamma-1, sequence (P19174 whole entry): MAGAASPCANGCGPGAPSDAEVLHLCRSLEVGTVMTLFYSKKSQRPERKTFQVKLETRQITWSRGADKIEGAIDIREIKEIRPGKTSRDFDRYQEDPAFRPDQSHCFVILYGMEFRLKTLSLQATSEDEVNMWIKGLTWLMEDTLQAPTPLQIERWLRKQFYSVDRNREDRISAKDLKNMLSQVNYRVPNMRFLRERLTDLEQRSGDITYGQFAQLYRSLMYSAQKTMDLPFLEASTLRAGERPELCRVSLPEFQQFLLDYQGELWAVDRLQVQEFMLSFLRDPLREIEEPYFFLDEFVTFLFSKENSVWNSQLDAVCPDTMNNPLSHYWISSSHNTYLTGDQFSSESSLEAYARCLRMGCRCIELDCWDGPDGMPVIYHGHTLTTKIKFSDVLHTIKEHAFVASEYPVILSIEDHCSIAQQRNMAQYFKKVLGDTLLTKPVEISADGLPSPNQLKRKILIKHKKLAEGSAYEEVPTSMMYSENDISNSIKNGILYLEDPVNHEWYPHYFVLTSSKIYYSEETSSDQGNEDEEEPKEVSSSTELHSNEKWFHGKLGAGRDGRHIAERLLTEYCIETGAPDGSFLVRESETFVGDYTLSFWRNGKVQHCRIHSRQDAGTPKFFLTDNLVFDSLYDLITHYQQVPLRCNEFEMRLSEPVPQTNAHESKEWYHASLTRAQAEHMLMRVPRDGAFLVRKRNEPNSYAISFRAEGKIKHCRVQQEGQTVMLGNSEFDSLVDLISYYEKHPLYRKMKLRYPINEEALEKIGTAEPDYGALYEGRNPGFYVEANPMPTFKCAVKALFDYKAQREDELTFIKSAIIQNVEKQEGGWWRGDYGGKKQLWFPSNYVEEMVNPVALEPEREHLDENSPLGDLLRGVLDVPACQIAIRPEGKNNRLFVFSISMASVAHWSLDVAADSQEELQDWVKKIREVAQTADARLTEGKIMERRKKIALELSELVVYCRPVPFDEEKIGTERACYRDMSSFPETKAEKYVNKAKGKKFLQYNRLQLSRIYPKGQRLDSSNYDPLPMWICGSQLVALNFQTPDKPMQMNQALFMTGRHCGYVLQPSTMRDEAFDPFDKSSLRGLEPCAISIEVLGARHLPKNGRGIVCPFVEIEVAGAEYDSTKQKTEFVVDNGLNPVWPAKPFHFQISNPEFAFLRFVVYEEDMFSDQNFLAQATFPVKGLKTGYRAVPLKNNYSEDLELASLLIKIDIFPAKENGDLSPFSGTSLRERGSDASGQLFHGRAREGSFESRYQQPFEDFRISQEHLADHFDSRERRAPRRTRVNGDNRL

[20] = target: C-C chemokine receptor type 6 (Homo sapiens, UniProt P51684); assay: CCR6 receptor antagonists, dose response, cell-based, luminescent beta-arrestin readout (AID 504728); assay type: functional
C-C chemokine receptor type 6, sequence (P51684 whole entry): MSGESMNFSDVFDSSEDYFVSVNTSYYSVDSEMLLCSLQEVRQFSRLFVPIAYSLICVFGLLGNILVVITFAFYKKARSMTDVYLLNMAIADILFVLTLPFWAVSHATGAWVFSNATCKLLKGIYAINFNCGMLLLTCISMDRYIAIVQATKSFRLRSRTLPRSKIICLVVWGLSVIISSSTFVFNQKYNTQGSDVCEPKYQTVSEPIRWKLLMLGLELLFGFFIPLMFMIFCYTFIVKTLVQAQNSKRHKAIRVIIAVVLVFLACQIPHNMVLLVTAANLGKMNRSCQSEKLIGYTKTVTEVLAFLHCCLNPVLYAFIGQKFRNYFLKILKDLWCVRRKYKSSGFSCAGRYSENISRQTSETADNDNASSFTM

COc1ccc(OC)c(/C=N/n2c(S)nnc2-c2[nH]nc3c2CCC3)c1
EC50 [1]: 18.9 µM (inconclusive) | EC50 [2]: > 150 µM (not active) | IC50 [3]: 2.88 µM (active) | EC50 [4]: > 150 µM (not active) | IC50 [5]: > 100 µM (inactive)

Cc1ccc(C2Nc3ccc4ccccc4c3C3=C2C(=O)CC(C)(C)C3)o1 (stereo not given)
EC50 [6]: > 85.3 µM (inactive) | EC50 [7]: > 85.3 µM (inactive)

Cc1ccc(S(=O)(=O)NCc2ccc(C(=O)NCCN(Cc3ccccc3)C(C)(C)C)cc2)cc1
IC50 [8]: 1.39 µM (active) | IC50 [9]: 0.0287 µM (active) | IC50 [10]: 0.0763 µM (active) | IC50 [11]: 0.0535 µM (active) | IC50 [12]: > 32 µM (inactive)

CCOc1ccc2nc3cc(N=Nc4ccc(N)nc4N)ccc3c(N)c2c1
IC50 [13]: 12.7 µM (inactive) | AC50 [14]: > 20 µM (inactive)

FC(F)(F)C1=Nc2cccc3cccc(c23)N1
IC50 [15]: 12.1 µM (active) | CC50 [16]: 11.5 µM (active) | IC50 [17]: 102 µM (inactive) | IC50 [18]: > 66.6 µM (inactive) | IC50 [19]: 56.6 µM (inactive) | IC50 [20]: 23.8 µM (inactive)
